Experimental findings from patent US20260014147A1, “STAT6 DEGRADERS” (Gilead Sciences, Inc., priority 2024, published 2026) are described below.

For assay [1], the target named is T1, STAT6 (endogenous, HiBiT-tagged) in HeLa LgBiT clone 4.14 cells (Homo sapiens, UniProt P42226).
T1 construct: These cells express endogenous STAT6; host or cells: HeLa LgBiT clone 4.14
T1 sequence (P42226 1-847): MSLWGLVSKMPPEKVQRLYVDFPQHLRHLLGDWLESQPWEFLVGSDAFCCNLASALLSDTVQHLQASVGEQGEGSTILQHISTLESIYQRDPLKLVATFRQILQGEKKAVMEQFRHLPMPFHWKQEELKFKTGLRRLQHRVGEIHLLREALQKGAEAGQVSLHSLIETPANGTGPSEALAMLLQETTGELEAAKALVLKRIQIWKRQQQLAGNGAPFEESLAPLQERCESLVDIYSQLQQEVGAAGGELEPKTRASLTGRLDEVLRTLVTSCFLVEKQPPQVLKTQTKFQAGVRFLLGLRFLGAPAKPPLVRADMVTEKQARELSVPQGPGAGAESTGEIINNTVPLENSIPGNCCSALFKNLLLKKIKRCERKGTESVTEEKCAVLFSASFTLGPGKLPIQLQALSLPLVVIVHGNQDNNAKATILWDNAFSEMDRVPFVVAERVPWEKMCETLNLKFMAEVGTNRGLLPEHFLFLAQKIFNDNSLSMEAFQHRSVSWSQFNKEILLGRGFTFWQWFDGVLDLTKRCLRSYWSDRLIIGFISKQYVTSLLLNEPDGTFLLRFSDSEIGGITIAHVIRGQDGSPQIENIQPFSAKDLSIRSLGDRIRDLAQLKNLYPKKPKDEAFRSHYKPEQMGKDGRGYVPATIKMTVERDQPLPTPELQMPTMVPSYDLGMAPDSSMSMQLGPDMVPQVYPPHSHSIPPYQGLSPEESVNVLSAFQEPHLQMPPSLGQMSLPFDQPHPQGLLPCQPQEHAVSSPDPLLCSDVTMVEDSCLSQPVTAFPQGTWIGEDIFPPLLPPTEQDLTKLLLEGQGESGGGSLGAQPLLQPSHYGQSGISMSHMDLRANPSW
Briefly: STAT6 Degrader Assay (HiBiT based, HeLa LgBiT clone 4.14 cells, luminescence, DC50). The class given is cell-based. Conditions: geometric mean; for DC50: DC50 provided for test compounds with >80% Emax, read-out: STAT6 degradation DC50. The procedure, abridged:
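HeLa LgBiT clone 4.14 cells carry CRISPR-inserted HiBiT on endogenous STAT6; 5000 cells/well were exposed to compound for 4-24 h at 37 °C, 5% CO2. Nano-Glo substrate added for 0.5 h; luminescence reflects remaining STAT6, with terfenadine ([…]) wells defining 100% degradation.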
In general terms: The HiBiT peptide binds its large partner to form an active luciferase.

Assay [2] concerns Eotaxin-3 (CCL26) release in human whole blood stimulated with IL-4. Briefly: Human Whole Blood Eotaxin-3 Assay (IL-4 stimulated, inhibition of eotaxin-3 release). The class given is cell-based. As to conditions: EC50 provided for test compounds with >80% Emax, geometric mean across assay runs and batches. As to the method:
This was a human whole blood assay using recombinant human Interleukin 4 to stimulate the blood and measuring the ability of the test compounds to inhibit eotaxin-3 release. The biological activities of the test compounds have been tested in human whole blood stimulated with IL-4 measuring Eotaxin-3 release. The test compounds were added to 384 well clear flat-bottom plate in a 4-fold serial dilution in triplicates using a liquid handler. Human whole blood stabilized in lithium-heparin tubes was added in a volume of 65 uL per well, resulting in a final DMSO concentration of 0.5%. The plate is incubated for 2 h at 37° C. under 5% CO2/95% air. Subsequently, 5 μL of recombinant human IL-4 (R&D Systems, cat #204-ILB) was added to the wells to a final concentration of 400 pM. The plate was incubated for 48 h at 37° C. under 5% CO2/95% air. The plate was spun down for 10 minutes at 500×g and 20 uL supernatant was harvested and transferred to a 384 well v-bottom plate using a liquid handler and stored at −20° C. until further analysis. 10 uL supernatant was used to measure the level of Eotaxin-3 (CCL26) using Human Eotaxin-3 MSD kit from Mesocsale (Cat #K251UEK-4). The assay was performed according to the manufacture instructions.
The data from the human whole blood eotaxin-3 assay is shown below for Examples 2q11, 2110, and 2c49 (where the effect in % is plotted against the test concentration in M on a log-scale).

For orientation: DC50 means the concentration giving 50% degradation. The term EC50 denotes the concentration giving half of the maximal effect. A high value points to a need for much substance. In the case of `C[C@@H](c1cc2c(-c3ccc(N)nc3)ccnc2n1C)N1CCC(c2ccc(C(=O)N3CCC(CN4CCN(c5ccc(NC6CCC(=O)NC6=O)cc5F)CC4C(F)(F)F)CC3)cc2)CC1` (mixture of isomers) [Example 2f9, 3-((4-(4-((1-(4-(1-((S)-1-(4-(6-aminopyridin-3-yl)-1-methyl-1H-pyrrolo[2,3-b]pyridin-2-yl)-ethyl)piperidin-4-yl)benzoyl)piperidin-4-yl)methyl)-3-(trifluoromethyl)-piperazin-1-yl)-3-fluorophenyl)-amino)piperidine-2,6-dione], the DC50 in assay [1] worked out at 0.0692 µM. The molecule also came in with an EC50 in assay [2] (Homo sapiens) of 0.249 µM.
Taken in the same sequence, the figures for `C[C@@H](c1cc2c(-c3ccc(N)nc3)ccnc2n1C)N1CCC(c2ccc(C(=O)N3CCC(CN4CCN(c5ccc(N[C@H]6CCC(=O)NC6=O)cc5F)CC4)CC3)cc2)CC1` (single isomer, unassigned) [Example 2c19] were 0.0105 µM and 0.109 µM.
As to `C[C@@H](c1cc2c(-c3ccc(N)nc3)ccnc2n1C)N1CCC(c2ccc(C(=O)N3CCC(CN4CCN(c5ccc(N[C@H]6CCC(=O)NC6=O)cc5F)CC4)CC3)cc2)CC1` (single isomer, unassigned) [Example 2c20], the DC50 in assay [1] stood at 0.0096 µM. The molecule also came in with an EC50 in assay [2] of 0.0828 µM.
For `COCc1nc2cc(-c3ccnc4c3cc([C@H](C)N3CCC(c5ccc(C(=O)N6CCC(CN7CCN(c8ccc(N[C@@H]9CCC(=O)NC9=O)cc8F)CC7)CC6)cc5)CC3)n4C)ccc2[nH]1` (single isomer, unassigned) [Example 2c52], the DC50 in assay [1] was determined as 0.0039 µM. This molecule also showed an EC50 in assay [2] (Homo sapiens) of 0.0307 µM.
The matching figures for `COCc1nc2cc(-c3ccnc4c3cc([C@H](C)N3CCC(c5ccc(C(=O)N6CCC(CN7CCN(c8ccc(N[C@H]9CCC(=O)NC9=O)cc8F)CC7)CC6)cc5)CC3)n4C)ccc2[nH]1` (single isomer, unassigned) [Example 2c53]: 0.0047 µM and 0.0309 µM.
The matching figures for `COCc1nc2cc(-c3ccnc4c3cc([C@H](C)N3CCC(c5ccc(C(=O)N6CCC(CN7CCN(c8ccc(N[C@H]9CCC(=O)NC9=O)cc8F)C[C@H]7C)CC6)cc5)CC3)n4C)ccc2[nH]1` (single isomer, unassigned) [Example 2f12]: 0.0041 µM and 0.0197 µM.
Taken in the same sequence, the figures for `COCc1nc2cc(-c3ccnc4c3cc([C@H](C)N3CCC(c5ccc(C(=O)N6CCC(CN7CCN(c8ccc(N[C@@H]9CCC(=O)NC9=O)cc8F)C[C@H]7C)CC6)cc5)CC3)n4C)ccc2[nH]1` (single isomer, unassigned) [Example 2f13] were 0.0025 µM and 0.0156 µM.
Consider `C[C@@H](c1cc2c(-c3ccc(N)nc3)ccnc2n1C)N1CCC(c2ccc(C(=O)N3CCn4nc(CN5CCC(c6ccc(N[C@@H]7CCC(=O)NC7=O)cc6F)CC5)cc4C3)cc2)CC1` (single isomer, unassigned) [Example 2q10], for which, in assay [1], the DC50 turned out to be 0.001 µM. A half-maximal effect in assay [2] (Homo sapiens) (EC50) was put at 0.0032 µM.
The matching figures for `C[C@@H](c1cc2c(-c3ccc(N)nc3)ccnc2n1C)N1CCC(c2ccc(C(=O)N3CCn4nc(CN5CCC(c6ccc(N[C@H]7CCC(=O)NC7=O)cc6F)CC5)cc4C3)cc2)CC1` (single isomer, unassigned) [Example 2q11]: 0.0008 µM and 0.0059 µM.
With `C[C@@H](c1cc2c(-c3ccc(N)nc3)ccnc2n1C)N1CCC(c2ccc(C(=O)N3CCC(CN4CCN(c5ccc(NC6CCC(=O)NC6=O)cc5F)CC4)CC3)cc2)CC1` (stereo partly drawn) [Example 2c14, 3-((4-(4-((1-(4-(1-((S)-1-(4-(6-aminopyridin-3-yl)-1-methyl-1H-pyrrolo[2,3-b]pyridin-2-yl)ethyl)-piperidin-4-yl)benzoyl)piperidin-4-yl)methyl)piperazin-1-yl)-3-fluorophenyl)amino)piperidine-2,6-dione], in assay [1], the 50% degradation concentration (DC50) is 0.0066 µM. The EC50 in assay [2] (Homo sapiens) came to 0.065 µM.
Take `COCc1nc2ccc(-c3ccnc4c3cc([C@H](C)N3CCC(c5ccc(C(=O)N6CCC(CN7CCN(c8ccc(NC9CCC(=O)NC9=O)cc8F)CC7)CC6)cc5)CC3)n4C)cc2[nH]1` (stereo partly drawn) [Example 2c16, 3-((3-fluoro-4-(4-((1-(4-(1-((S)-1-(4-(2-(methoxymethyl)-1H-benzo[d]imidazol-6-yl)-1-methyl-1H-pyrrolo[2,3-b]pyridin-2-yl)ethyl)piperidin-4-yl)benzoyl)piperidin-4-yl)methyl)piperazin-1-yl)phenyl)amino)piperidine-2,6-dione]: the DC50 in assay [1] amounted to 0.0012 µM. This molecule returned an EC50 in assay [2] (Homo sapiens) of 0.0226 µM.
Regarding `CO[C@@H](C)c1nc2cc(-c3ccnc4c3cc([C@H](C)N3CCC(c5ccc(C(=O)N6CCC(CN7CCN(c8ccc(NC9CCC(=O)NC9=O)cc8F)CC7)CC6)cc5)CC3)n4C)ccc2[nH]1` (stereo partly drawn) [Example 2c18, 3-((3-fluoro-4-(4-((1-(4-(1-((S)-1-(4-(2-((S)-1-methoxyethyl)-1H-benzo[d]imidazol-5-yl)-1-methyl-1H-pyrrolo[2,3-b]pyridin-2-yl)ethyl)piperidin-4-yl)benzoyl)piperidin-4-yl)methyl)piperazin-1-yl)phenyl)amino)piperidine-2,6-dione], the DC50 in assay [1] was determined as 0.0048 µM. For the same molecule, the EC50 in assay [2] (Homo sapiens) stood at 0.039 µM.
Taken in the same sequence, the figures for `C[C@@H](c1cc2c(-c3ccc(N)nc3C#N)ccnc2n1C)N1CCC(c2ccc(C(=O)N3CCC(CN4CCN(c5ccc(NC6CCC(=O)NC6=O)cc5F)CC4)CC3)cc2)CC1` (stereo partly drawn) [Example 2c22, 6-amino-3-(2-((1S)-1-(4-(4-(4-((4-(4-((2,6-dioxopiperidin-3-yl)amino)-2-fluorophenyl)-piperazin-1-yl)methyl)piperidine-1-carbonyl)phenyl)piperidin-1-yl)ethyl)-1-methyl-1H-pyrrolo[2,3-b]pyridin-4-yl) picolinonitrile] were 0.0282 µM and 0.153 µM.
The matching figures for `C[C@@H](c1cc2c(-c3ccc(N)nc3)ccnc2n1C)N1CCC(c2ccc(C(=O)N3CCC(F)(CN4CCN(c5ccc(NC6CCC(=O)NC6=O)cc5F)CC4)CC3)cc2)CC1` (stereo partly drawn) [Example 2c23, 3-((4-(4-((1-(4-(1-((S)-1-(4-(6-aminopyridin-3-yl)-1-methyl-1H-pyrrolo[2,3-b]pyridin-2-yl)ethyl)-piperidin-4-yl)benzoyl)-4-fluoropiperidin-4-yl)methyl)piperazin-1-yl)-3-fluorophenyl)amino)-piperidine-2,6-dione]: 0.0096 µM and 0.0492 µM.
Taken in the same sequence, the figures for `C[C@@H](c1cc2c(-c3cnc(N)c(F)c3)ccnc2n1C)N1CCC(c2ccc(C(=O)N3CCC(CN4CCN(c5ccc(NC6CCC(=O)NC6=O)cc5F)CC4)CC3)cc2)CC1` (stereo partly drawn) [Example 2c24, 3-((4-(4-((1-(4-(1-((S)-1-(4-(6-amino-5-fluoropyridin-3-yl)-1-methyl-1H-pyrrolo[2,3-b]pyridin-2-yl)ethyl)piperidin-4-yl)benzoyl)piperidin-4-yl)methyl)piperazin-1-yl)-3-fluorophenyl)-amino)piperidine-2,6-dione] were 0.0447 µM and 0.792 µM.
In general, Emax refers to the maximal effect, on the per cent scale that the assay sets. On to `C[C@@H](c1cc2c(-c3ccc(NCCO)nc3)ccnc2n1C)N1CCC(c2ccc(C(=O)N3CCC(CN4CCN(c5ccc(NC6CCC(=O)NC6=O)cc5F)CC4)CC3)cc2)CC1` (stereo partly drawn) [Example 2c26, 3-((3-fluoro-4-(4-((1-(4-(1-((S)-1-(4-(6-((2-hydroxyethyl)amino)pyridin-3-yl)-1-methyl-1H-pyrrolo[2,3-b]pyridin-2-yl)ethyl)piperidin-4-yl)benzoyl)piperidin-4-yl)methyl)piperazin-1-yl)phenyl)-amino)piperidine-2,6-dione], for which the Emax in assay [1] (Emax provided for test compounds with <80% Emax (and 2c15), read-out: STAT6 degradation Emax) lay within 60 to 70%. This molecule gave an EC50 in assay [2] (Homo sapiens) of 0.188 µM.
